Key:
human DC = test: DC maturation in co-culture of human DC and iNKT cells (flow cytometry CD83, CD86, CD38); format: cell-based; settings: titration on DC, 48 h
Experimental: Different analogs of α-GalCer as indicated or LPS were added to co-cultures of human DC and iNKT cells. (A) Maturation of the DC was assessed after 40 h, gating on CD11c positive cells. Histograms indicate the CD83 and CD86 profiles of DC from different treatments; the percentages indicate the percentage of CD83hi mature DC and the numbers in parenthesis, the mean fluorescence intensity of the population contained within the labeled gate. DC and iNKT cells were co-cultured in the presence of different analogs of α-GalCer for 24 hours. Supernatants were analyzed using ELISA for the presence of (B) IL-12p40 released by the DC and (C) IFN-γ from the iNKT cells. […] Cells were co-cultured in the presence of the indicated concentration of analog and the percentages of DC with increased CD83/CD80 are shown. […] Viability of α-GalCer or analog-pulsed DC was assessed after 40 h co-culture in the presence of iNKT cells by flow cytometry. Cells were stained with propidium iodide and the percentage of live CD11c gated cells remaining in the culture are shown.
Human monocyte-derived DC were pulsed with 150 ng of different inositol analogs and co-cultured with iNKT cells for 24 h. […] Numbers indicate the mean fluorescence intensity of the histogram gated on CD11c^+ cells.
Immature human DC were cultured in the presence of a human iNKT cell clone with or without analogs or vehicle at different concentrations.
(§1) To compare the functions of high affinity α-GalCer, intermediate affinity threitolceramide with the known, low affinity analog OCH, the three compounds were titrated onto DC and used to present to iNKT cells. Maturation of DC and DC viability were examined after 48 h.

human CD1d molecules = target: T1, human CD1d molecules (Homo sapiens, UniProt P15813); test: Dissociation of ligand from hCD1d, surface plasmon resonance with 9B Fab; format: binding; settings: fold faster than α-GalCer
T1 construct: soluble human CD1d molecules; biotin (biotinylated); made in house
Source text: FIG. 1 Comparison of dissociation rate of OCH and α-GalCer. Dissociation of ligand from hCD1d. The indicated hCD1d (α-Gal Cer or OCH) complex was loaded onto a Surface Plasmon resonance (Biacore) sensor surface at t=0 and the amount of hCD1d remaining at the indicated time point measured using the Fab 9B.
Using the 9B Fab we looked at the rate of dissociation of all the tested compounds from soluble human CD1d molecules using surface plasmon resonance. Biotinylated CD1d-lipid complexes were immobilized to streptavidin-coated chips and the level of binding of the 9B Fab was measured over time. The loss of binding of the antibody over time was used to determine the rate of lipid dissociation from CD1d molecules.

DC = test: Viability of analog-pulsed DC co-cultured with iNKT cells (propidium iodide); format: cell-based, human; settings: at concentration of maximal DC maturation
Experimental: Different analogs of α-GalCer as indicated or LPS were added to co-cultures of human DC and iNKT cells. (A) Maturation of the DC was assessed after 40 h, gating on CD11c positive cells. Histograms indicate the CD83 and CD86 profiles of DC from different treatments; the percentages indicate the percentage of CD83hi mature DC and the numbers in parenthesis, the mean fluorescence intensity of the population contained within the labeled gate. DC and iNKT cells were co-cultured in the presence of different analogs of α-GalCer for 24 hours. Supernatants were analyzed using ELISA for the presence of (B) IL-12p40 released by the DC and (C) IFN-γ from the iNKT cells. All the compounds tested induced weaker but significant cytokine production than α-GalCer, with the exception of arabinitolceramide. (D) Titration of α-GalCer, OCH or threitolceramide on DCs and co-culture with iNKT cells induces DC maturation in vitro. Cells were co-cultured in the presence of the indicated concentration of analog and the percentages of DC with increased CD83/CD80 are shown. […] Viability of α-GalCer or analog-pulsed DC was assessed after 40 h co-culture in the presence of iNKT cells by flow cytometry. Cells were stained with propidium iodide and the percentage of live CD11c gated cells remaining in the culture are shown.
as §1

rate of dissociation from hCD1d relative to α-GalCer (human CD1d molecules): 3.9 fold
SMILES: CCCCCCCCCCCCCCCCCCCCCCCC(=O)N[C@@H](CO[C@H]1O[C@H](CO)[C@H](O)[C@H](O)[C@H]1O)[C@H](O)[C@H](O)CCCCC [OCH, (2S,3S,4R)-1-O-(α-D-galactopyranosyl)-N-tetracosanoyl-2-amino-1,3,4-nonanetriol]
concentration inducing maximal DC maturation (human DC): 67 ng/mL | DC viability (propidium iodide negative) compared with α-GalCer (DC): significantly greater proportion of DC were propidium iodide negative
